The structures appear in SMILES notation.

The values below come from patent US11186567B2, “AMPA receptor potentiators” (UNIVERSITY COLLEGE CARDIFF CONSULTANTS LIMITED, priority 2017, dated 2021).

Series [1] can be described thus: Intrinsic clearance (CLi), human. Particulars: 0.5 mg/mL microsomes, 2 μM test article, 2 mM NADPH, 37° C. Type of series: in vitro ADME. As to the method:
(§1) For example, compounds of the invention preferably have a CLi of less than 100 μL/min/mg in rat and human microsomes. The CLi can be measured using known methods, such as those illustrated in the Examples.
(§2) The in-vitro intrinsic clearance of the compounds was measured in rat and human […] using the following assay.
(§3) 5 μL microsomes (20 mg/ml, Corning BV) diluted into 95 μL PBS (pH 7) containing 0.2% DMSO and 4 μM test article were incubated at 37° C. shaking at 1000 rpm prior the addition of 100 μL of pre-warmed 4 mM NADPH in PBS (final concentrations: 0.5 mg/mL microsomes, 2 μM test article, 0.1% DMSO and 2 mM NADPH). After mixing thoroughly the T=0 sample (40 μL) was immediately quenched into ice cold methanol containing 2 μM internal standard (Carbemazapine). Three further samples were quenched in the same way at 3, 9 and 30 min. Samples were incubated on ice for 30 min before centrifugation at 4000 rpm+ for […]. The supernatant was analysed via LCMS and the test article:carbemazapine peak area ratios calculated to determine the rate of substrate depletion.

The nature of series [2]: Intrinsic clearance (CLi), rat. Particulars: 0.5 mg/mL microsomes, 2 μM test article, 2 mM NADPH, 37° C. Type of series: in vitro ADME. As to the method:
as §1, §2, §3

Regarding `CCc1c(CO)c(C(F)(F)F)nn1-c1ccc(CN2CCCC2=O)cc1` [Example 2, 1-[[4-[5-Ethyl-4-(hydroxymethyl)-3-(trifluoromethyl)pyrazol-1-yl]phenyl]methyl]pyrrolidin-2-one], in series [1], the CLi human is 2.6 µL/min/mg. Besides, the “CLi Rat” value in series [2] is 3.7 µL/min/mg.

In the case of `Cc1c(Cl)c(C(F)(F)F)nn1-c1ccc(CN2CCCC2=O)cc1` [Comparative Example, reference compound], in series [1], the CLi human amounted to 71 µL/min/mg. Moreover, the “CLi Rat” value in series [2] was found to be 878 µL/min/mg.

Take `Cc1c(C(F)(F)F)nn(-c2ccc(CN3CCCC3=O)cc2)c1C#N` [Example 6, 4-Methyl-2-[4-[(2-oxopyrrolidin-1-yl)methyl]phenyl]-5-(trifluoromethyl)pyrazole-3-carbonitrile]: the CLi human in series [1] worked out at 6.2 µL/min/mg. Moreover, the “CLi Rat” value in series [2] turned out to be 70.2 µL/min/mg.

In the case of `Cc1c(CO)c(C(F)(F)F)nn1-c1ccc(CN2CCCC2=O)cc1` [Example 1, 1-[[4-[4-(Hydroxymethyl)-5-methyl-3-(trifluoromethyl)pyrazol-1-yl]phenyl]methyl]pyrrolidin-2-one], in series [1], the CLi human was 4.3 µL/min/mg. Also, the “CLi Rat” value in series [2] came out at 8.4 µL/min/mg.

In turn, `Cc1c(C(F)(F)F)nn(-c2ccc(CN3CCCC3=O)cc2)c1C(C)O` (centres unmarked) [Example 7, 1-[[4-[5-(1-Hydroxyethyl)-4-methyl-3-(trifluoromethyl)pyrazol-1-yl]phenyl]methyl]pyrrolidin-2-one] gave a CLi human in series [1] of 31.1 µL/min/mg. The “CLi Rat” value in series [2] amounted to 37.7 µL/min/mg.

Regarding `COCc1c(C)c(C(F)(F)F)nn1-c1ccc(CN2CCCC2=O)cc1` [Example 5, 1-[[4-[5-(Methoxymethyl)-4-methyl-3-(trifluoromethyl)pyrazol-1-yl]phenyl]methyl]pyrrolidin-2-one], in series [1], the CLi human stood at 47.4 µL/min/mg. Besides, the “CLi Rat” value in series [2] was determined as 87.4 µL/min/mg.

As to `CC(C)c1c(CO)c(C(F)(F)F)nn1-c1ccc(CN2CCCC2=O)cc1` [Example 3, 1-[[4-[4-(Hydroxymethyl)-5-isopropyl-3-(trifluoromethyl)pyrazol-1-yl]phenyl]methyl]pyrrolidin-2-one], the CLi human in series [1] was determined as 7.9 µL/min/mg. Also, the “CLi Rat” value in series [2] is 2.2 µL/min/mg.
